Measurements taken from patent publication US5889029A, “Use of cotinine in treating psychiatric disorders” (priority 1997, dated 1999).

Legend:
[1] = target: T1, Human recombinant M2 clone (Homo sapiens, UniProt P08172); experiment: Muscarinic--M2 Clone Binding Assay
T1 construct: expressed in transfected cells
T1 sequence (P08172 1-466): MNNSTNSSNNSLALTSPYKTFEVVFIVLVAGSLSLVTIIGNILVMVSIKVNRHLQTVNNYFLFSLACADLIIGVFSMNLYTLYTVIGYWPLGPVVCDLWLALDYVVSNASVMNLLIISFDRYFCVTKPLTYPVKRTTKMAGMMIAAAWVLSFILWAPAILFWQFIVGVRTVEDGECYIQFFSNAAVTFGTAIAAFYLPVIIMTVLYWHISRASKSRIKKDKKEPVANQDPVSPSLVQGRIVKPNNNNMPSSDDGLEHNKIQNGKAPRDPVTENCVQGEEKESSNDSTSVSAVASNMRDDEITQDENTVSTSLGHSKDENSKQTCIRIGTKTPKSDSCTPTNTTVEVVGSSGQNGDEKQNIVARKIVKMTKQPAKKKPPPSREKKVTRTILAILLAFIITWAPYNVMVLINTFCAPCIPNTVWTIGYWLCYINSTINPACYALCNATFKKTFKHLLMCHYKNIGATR

Serotonin (5HT1) = Serotonin (5HT1) Binding Assay; settings: Rat cortical membranes, [3H]Hydroxytryptamine binoxalate 3.0 nM
[2] = target: T2, Human recombinant M1 clone (Homo sapiens, UniProt P11229); experiment: biochemical; format: binding
T2 construct: expressed in transfected cells
T2 sequence (P11229 1-460): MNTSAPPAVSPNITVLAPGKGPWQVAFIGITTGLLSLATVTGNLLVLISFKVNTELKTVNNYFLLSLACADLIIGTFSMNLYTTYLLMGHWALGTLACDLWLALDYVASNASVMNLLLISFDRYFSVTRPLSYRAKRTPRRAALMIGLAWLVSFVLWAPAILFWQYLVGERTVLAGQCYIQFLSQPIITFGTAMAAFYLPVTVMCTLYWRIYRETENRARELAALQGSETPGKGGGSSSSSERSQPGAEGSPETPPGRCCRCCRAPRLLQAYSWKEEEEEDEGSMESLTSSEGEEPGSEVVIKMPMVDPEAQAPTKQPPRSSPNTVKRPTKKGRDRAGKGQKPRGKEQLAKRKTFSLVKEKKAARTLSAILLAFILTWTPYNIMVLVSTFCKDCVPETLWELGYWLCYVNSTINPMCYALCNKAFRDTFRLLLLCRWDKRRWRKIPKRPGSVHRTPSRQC

[3] = intramuscular injections; wide range of doses; squirrel monkeys; cited from earlier work
dopamine uptake site = target: T3, dopamine uptake site (Cavia porcellus, UniProt H0WCX4); experiment: Dopamine Reuptake Binding Assay; settings: Guinea pig striatal membranes, [3H]WIN,35,428 1.0 nM
T3 construct: Guinea pig striatal membranes; from tissue; host or cells: guinea pig striatal membranes

nicotinic binding site = target: T4, nicotinic binding site (Rattus norvegicus, UniProt P09483+P12390); experiment: biochemical; settings: Rat cortical membranes, [3H]N-methylcarbamylcholine iodide 2.5 nM, read-out: Receptor Binding Activity Percent Inhibition Average (N = 2)
T4 construct: Rat cortical membranes; from tissue; host or cells: rat cortical membranes

[4] = humans, cited from earlier work
[5] = target: Glycine (Strychnine Insensitive) (Rattus norvegicus, UniProt P35439); experiment: biochemical; format: binding; settings: read-out: Receptor Binding Activity Percent Inhibition Average (N = 2)
[6] = read-out: Receptor Binding Activity Percent Inhibition Average (N = 2)

T3 sequence (H0WCX4 1-619): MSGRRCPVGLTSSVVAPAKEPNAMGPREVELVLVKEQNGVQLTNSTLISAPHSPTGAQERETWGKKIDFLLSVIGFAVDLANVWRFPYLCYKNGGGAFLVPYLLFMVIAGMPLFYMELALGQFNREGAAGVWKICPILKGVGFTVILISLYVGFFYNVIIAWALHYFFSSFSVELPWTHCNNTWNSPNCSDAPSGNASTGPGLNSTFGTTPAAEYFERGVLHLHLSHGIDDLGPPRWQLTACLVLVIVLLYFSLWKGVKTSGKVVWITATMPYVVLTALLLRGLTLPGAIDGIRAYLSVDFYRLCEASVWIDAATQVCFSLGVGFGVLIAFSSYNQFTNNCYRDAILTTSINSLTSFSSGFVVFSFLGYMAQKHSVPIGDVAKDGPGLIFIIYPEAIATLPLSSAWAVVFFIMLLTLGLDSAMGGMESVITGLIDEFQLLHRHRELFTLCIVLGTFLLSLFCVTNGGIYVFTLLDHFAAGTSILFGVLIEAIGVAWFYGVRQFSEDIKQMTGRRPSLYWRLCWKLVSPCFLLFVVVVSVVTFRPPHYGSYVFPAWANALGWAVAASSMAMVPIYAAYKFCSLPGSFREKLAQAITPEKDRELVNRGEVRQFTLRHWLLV
T4 sequence (P09483 31-630): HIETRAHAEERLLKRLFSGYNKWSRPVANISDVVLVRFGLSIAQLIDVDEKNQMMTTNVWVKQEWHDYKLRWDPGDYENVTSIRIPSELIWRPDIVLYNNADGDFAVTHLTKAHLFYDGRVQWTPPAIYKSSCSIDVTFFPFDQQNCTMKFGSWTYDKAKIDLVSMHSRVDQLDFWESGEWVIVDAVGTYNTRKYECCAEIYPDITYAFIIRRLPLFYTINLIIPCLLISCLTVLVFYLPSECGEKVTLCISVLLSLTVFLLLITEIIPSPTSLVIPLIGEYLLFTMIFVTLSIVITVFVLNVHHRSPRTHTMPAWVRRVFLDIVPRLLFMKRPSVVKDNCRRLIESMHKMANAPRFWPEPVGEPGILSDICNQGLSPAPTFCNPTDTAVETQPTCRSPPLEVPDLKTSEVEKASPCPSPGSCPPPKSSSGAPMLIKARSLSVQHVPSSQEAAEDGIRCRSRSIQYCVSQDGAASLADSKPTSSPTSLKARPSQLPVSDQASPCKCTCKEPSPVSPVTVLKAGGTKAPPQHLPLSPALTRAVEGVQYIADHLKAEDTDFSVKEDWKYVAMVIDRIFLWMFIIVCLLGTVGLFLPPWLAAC
T4 sequence (P12390 25-500): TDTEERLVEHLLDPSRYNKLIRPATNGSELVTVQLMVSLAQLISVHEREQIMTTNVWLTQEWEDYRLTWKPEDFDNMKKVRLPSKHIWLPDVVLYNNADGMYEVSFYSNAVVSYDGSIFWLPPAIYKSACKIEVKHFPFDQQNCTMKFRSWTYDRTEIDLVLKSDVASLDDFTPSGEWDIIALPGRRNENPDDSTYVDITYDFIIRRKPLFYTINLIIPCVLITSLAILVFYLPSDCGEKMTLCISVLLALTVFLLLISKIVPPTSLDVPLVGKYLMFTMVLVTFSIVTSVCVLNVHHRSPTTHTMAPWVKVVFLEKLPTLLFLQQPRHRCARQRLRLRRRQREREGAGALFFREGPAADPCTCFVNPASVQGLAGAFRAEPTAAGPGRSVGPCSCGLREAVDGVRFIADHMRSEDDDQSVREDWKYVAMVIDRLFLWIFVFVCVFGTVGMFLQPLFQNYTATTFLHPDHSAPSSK

In the case of `CN1C(=O)CCC1c1cccnc1` (single isomer, unassigned) [Cotinine, 1-methyl-5-(3-pyridinyl)-2-pyrrolidionone], the “effectiveness in binding relative to an equal concentration of nicotine, binding expressed as percent inhibition” value ([1]; muscarinic-2 receptor, human tissue) is reported as “about five”, the inhibition at 1 µM [1, 6] is reported as 22.3% and the inhibition at 100 µM [1, 6] is reported as 21.6%. For the same molecule, the “Receptor Binding Activity Percent Inhibition Average (N = 2)” value (Serotonin (5HT1); 10^-4 M) was -0.8%, the “Receptor Binding Activity Percent Inhibition Average (N = 2)” value (Serotonin (5HT1); 10^-6 M) was 10.9% and the “effectiveness in binding relative to an equal concentration of nicotine, binding expressed as percent inhibition” value [2] was “about 19 times”. The inhibition at 1 µM [2, 6] was 15.5%, the inhibition at 100 µM [2, 6] was 19.5% and the “rates of responding on fixed interval schedules of reinforcement” value [3] was “increased rates of responding”. For the same molecule, the “Receptor Binding Activity Percent Inhibition Average (N = 2)” value (dopamine uptake site; 10^-4 M) was 7.5%, the “Receptor Binding Activity Percent Inhibition Average (N = 2)” value (dopamine uptake site; 10^-6 M) was 14.2% and the inhibition at 100 µM (nicotinic binding site; 10^-4 M) was 12%. The inhibition at 1 µM (nicotinic binding site; 10^-6 M) was 78.5%, the cardiovascular changes ([4]; intravenous infusion over 60 minutes) was “no cardiovascular changes” and the “subjective ratings of desire to smoke, irritability, low energy and anxiety/tension” value ([4]; intravenous infusion over 60 minutes, comparable to placebo-induced changes) was “significant decreases”. The subjective ratings ([4]; rapid infusion over 5 minutes) was “no significant changes”, the inhibition at 1 µM [5] was 10.9% and the inhibition at 100 µM [5] was -0.6%.
